Laboratory results as given in patent US11053185B2, “Dendritic polyethylene glycol derivative, and preparation method and application thereof” (JENKEM TECHNOLOGY CO., LTD. (TIANJIN), priority 2017, dated 2021).

Assay: Comparison of solubility of derivatives in water
Assay type: physicochemical
Details: shaken vigorously every 5 minutes for 30 seconds until clear
Experimental: Then the solution was shaken vigorously every 5 minutes for 30 seconds. After 30 minutes, the solution was turbid. Another 1.5 mL of water was added and the solution was shaken vigorously every 5 minutes for 30 seconds, and the solution became clear until 9 mL of water was totally added.
24.2 mg of the cholesterol derivative of the mEG7-OH prepared in Example 9 was dispersed in 50 mL of water, and 5 mL of the mixture was taken out and added with 1.5 mL of water. Then the solution was shaken vigorously every 5 minutes for 30 seconds. After 30 minutes, the solution became turbid. Another 5 mL of water was added and the solution was shaken vigorously every 5 minutes for 30 seconds until 25 mL of water was totally added. 5 mL of the solution was taken out from the diluted solution and operated similarly, and the solution became clear until 10 mL of water was added.
(§1) 111.0 mg of the hexadecanol derivative of the ((mEG3)2-N—C3H6)2—N—C3H6—OH prepared in Example 8 was dispersed in 50 μL of water, and shaken vigorously every 5 minutes for 30 seconds. After 30 minutes, the solution became clear. Another 50 μL of water was added and the solution was shaken vigorously every 5 minutes for 30 seconds, and the solution was still clear until 1.025 mL of water was added.
as §1, with “112.9” for “111.0”, “mEG7-OH” for “((mEG3)2-N—C3H6)2—N—C3H6—OH”, “9” for “8”, “was turbid.” for “became clear.”, “became” for “was still”, “250 μL” for “1.025 mL”
After 30 minutes, the solution was clear. Another 50 μL of water was added and the solution was shaken vigorously every 5 minutes for 30 seconds, and the solution was still clear until 1.025 mL of water was added.
After 30 minutes, the solution was turbid. Another 50 μL of water was added and the solution was shaken vigorously every 5 minutes for 30 seconds. After 30 minutes, the solution became clear.

SMILES	Solubility in water	Solubility in water (listed as menthol)	Solubility in water (listed as cholesterol)	Solubility in water (listed as hexadecanol)
CC1CCC(C(C)C)C(O)C1 (stereo not drawn) [Menthol, menthol]	Less than 100 mg/ mg/100 g H2O	less than 100 mg/100 g H2O	–	–
CC(C)CCC[C@@H](C)[C@H]1CC[C@H]2[C@@H]3CC=C4C[C@@H](O)CC[C@]4(C)[C@H]3CC[C@]12C [Cholesterol, cholesterol]	Less than 0.2 mg/ mg/100 g H2O	–	less than 0.2 mg/100 g H2O	–
CCCCCCCCCCCCCCCCO [Hexadecanol, hexadecanol]	Less than 1 mg/ mg/100 g H2O	–	–	less than 1 mg/100 g H2O
